Test results as given in US20230414568A1, “PHARMACEUTICAL COMBINATION FOR MOOD DISORDERS” (INSTITUTO NACIONAL DE PSIQUIATRÍA "RAMÓN DE LA FUENTE MUÑIZ", priority 2018, published 2023).
Marks after values point to notes of the source that are not given here.

Key:
[1] = test system: Swiss Webster mice; assay: Forced swim test (FST) in mice; assay type: in vivo; conditions: for antidepressant-type effect, reduction of immobility time: acute single I.P. administration, ketamine 1.5 mg/kg, melatonin 4 and 16 mg/kg, alone or combined, vs control group
Method: (§1) Male mice of the “Swiss Webster” strain between 25 and 35 grams were used. All mice were placed in polyethylene boxes (8 mice per box) at a controlled temperature between 21-22° C., in a room with the dark light cycle reversed (12:12 hours, with artificial light from 10 PM to 10 A.M). The behavior evaluations of the mice were carried out between 10 AM and 3 PM. These mice were fed Purina® for rodents and water ad libitum.
A single intraperitoneal administration (I.P.) was performed in a volume of […] of body weight, as the following treatment scheme: […]
The forced swim test consists of two sessions. In the first session (pre-test), the animals are placed in a glass cylinder with the following dimensions: 20 cm in diameter by 30 cm in height. The glass cylinder is filled with water to a height of 15 cm, at 23-25° C. temperature. The mice are kept in the cylinder for 15 minutes and are naturally forced to swim. The second session takes place 24 hours after the first session and 30 minutes after administering the different pharmacological treatments. The mice are placed in the glass cylinder for 5 minutes and videotaped for further analysis. The immobility of mice in FST is defined as depressive-type behavior and is manifested by a minimal amount of movements made by the animal to stay afloat. The antidepressant effect of a drug is reflected in this test as a decrease in immobility time and an increase in swimming compared to control animals (administered with the vehicle).

[2] = test system: olfactory neuronal precursors; assay: Formation of spines in cloned olfactory neuronal precursors; assay type: cell-based, human; conditions: ketamine 10^−7 M
Method: (§2) Cloned neuronal precursors obtained by exfoliation of the nasal cavity of a healthy subject without neuropsychiatric disease at the time of sample collection were used. These were grown according to the following process: • a) Solution 1 containing the culture medium characterized by containing one or more amino acids, one or more mineral salts, one or more vitamins, one or more growth factors of natural origin, and one or more antibiotics; • b) Solution 2 containing one or more pH regulators, and one or more calcium chelating agents, whose function is to moisten the cells that will later be propagated; • c) Solution 3 containing one or more substances that break proteins and that allow the separation between the cells by dispersing them; • d) Solution 4 containing one or more substances that allow the cells to be fixed to a glass support; • e) Solution 5 of cryopreservation containing one or more cryoprotective agents of neuronal origin cells; • f) Solution 6 of differentiation containing the maintenance solution without natural origin growth factors, and a cyclic nucleotide compound that induces differentiation; • g) Solution 7 containing one or more identifiers of specific protein molecules of the neuronal structure such that they allow to distinguish the neuronal cells from patients with neuropsychiatric diseases from healthy subjects; and • h) Solution 8 containing one or more fluorescent and/or enzymatic markers to recognize the identifiers of solution 7; up to passage 5 at a temperature of 37° C. in a 5% CO^2 atmosphere. Cells in passage 5 were incubated with increasing concentrations of ketamine or melatonin or the combination of both according to the following administration schedules:
(§3) • i. Incubation of the neuronal precursors with a vehicle (0) and ketamine for 12 hours (1), 24 hours (2), 48 hours (3) and 72 hours (4). • ii. Incubation of neuronal precursors with 10^−7 molar ketamine for 48 hours followed by incubation for 6 hours with 10^−7 molar ketamine and melatonin concentrations ranging from 10^−11 molar (7), from 10^−9 molar (8), 10^−7 molar (9) and 10^−5 molar (10), this evaluation was incorporated in a treatment with vehicle (0), with 10^−7 molar melatonin (5) and 10^−7 molar ketamine (6). Said treatment is outlined in FIG. 1. • iii. […]
Once the cells were fixed, they were processed to stain them with specific markers that recognize the spines, which are made up of spinophilin and filamentous actin (FIG. 2A and 2B). […] The spines were counted in 10 fields chosen at random and normalized between the total cells number present in each field (Table 1). […]

[3] = test system: olfactory neuronal precursors; assay: Cell cluster formation of olfactory neuronal precursors; assay type: cell-based, human
Method: as §2, §3

[4] = test system: Swiss Webster mice; assay: Open field test (OFT) in mice; assay type: in vivo
Method: as §1
In order to discard nonspecific actions of any of the treatments on locomotor activity, all the treatments studied in the TST and in the FST were analyzed in the OFT. Motor activity was measured in an apparatus formed by an opaque plexiglass box (40×30×20 cm), divided into 12 equal squares ([…]). The animal was placed in a corner of the cage and its behavior was videotaped for a period of 5 minutes. An observer, who was blinded to drug treatments, recorded the total number of times the animal crossed a square during the test. A count was considered when the animal fully crossed from one plaza to the next. Any change in the number of counts is considered as an alteration in locomotor activity. The test box was carefully cleaned after each session. To avoid changes in the behavior of the animals after the first experiment, the mice were used only once per test type.
The following groups of mice were treated under a single administration schedule: with a vehicle (26), a sub-effective dose of ketamine 1.5 mg/Kg (27), 3 mg/Kg (28), 10 mg/Kg (29), 20 mg/Kg (30), 30 mg/Kg (31), plus no effective dose of melatonin and 30 minutes later they were subjected to TST.
Under the same single administration scheme; (24, 7 and 0.5 h) before starting the trial, two other independent groups were administered with melatonin 4 mg/kg (33) and 16 mg/kg (34) plus no effective dose of ketamine, with their respective control (32). In other groups, melatonin 4 mg/kg +ketamine 1.5 mg/kg (36) and melatonin 16 mg/kg+ketamine 1.5 mg/kg (37) were administered, with their respective control (35).
The following groups of mice were treated under a triple administration scheme: with a vehicle (38), three administrations of melatonin 4 mg/Kg (39), three administrations of melatonin 16 mg/Kg (40), three administrations of ketamine 1.5 mg/Kg (41), three administrations of melatonin 4 mg/Kg+one administration of ketamine 1.5 mg/Kg (42) and three administrations of melatonin 16 mg/Kg+one administration of ketamine 1.5 mg/Kg (43) and 30 minutes later they were subjected to TST.
Evaluating the effect of melatonin in combination with ketamine on the ambulatory activity of mice in the open field test (OFT) all results are expressed as the mean±SEM of 8-12 animals. Comparisons were made using a one-way ANOVA analysis, followed by the Bonferroni test: * p<0.05, ** p<0.01, *** p<0.001.

[5] = test system: Swiss Webster mice; assay: Tail suspension test (TST) in mice; assay type: in vivo; conditions: N 8
[6] = single administration, ketamine 1.5 mg/kg (group 27)
[7] = single administration, ketamine 3 mg/kg (group 28)
[8] = single administration, ketamine 10 mg/kg (group 29)
[9] = single administration, ketamine 20 mg/kg (group 30)
[10] = single administration, ketamine 30 mg/kg (group 31)
[11] = triple administration, ketamine 1.5 mg/kg (group 41)
[12] = single administration, melatonin 4 mg/kg (group 33)
[13] = single administration, melatonin 16 mg/kg (group 34)
[14] = triple administration, melatonin 4 mg/kg (group 39)
[15] = triple administration, melatonin 16 mg/kg (group 40)

## CNCCC(Oc1ccc(C(F)(F)F)cc1)c1ccccc1 (centres unmarked) [Fluoxetine, fluoxetine]
[1]; fluoxetine 5 mg/kg I.P. (group 19)
  Immobility time: 49.76 ± 4.65 s
[1]; fluoxetine 10 mg/kg I.P. (group 20)
  Immobility time: 35.25 ± 3.88 s

## CNC1(c2ccccc2Cl)CCCCC1=O (centres unmarked) [Ketamine, 2-(2-chlorophenyl)-2-(methylamino) cyclohexanone]
[2]; incubation 12 h (group 1)
  Spines: 10.25 ± 1.89%
[2]; incubation 24 h (group 2)
  Spines: 22.65 ± 2.16%
[2]; incubation 48 h (group 3)
  Spines: 45.31 ± 4.26%
[2]; incubation 72 h (group 4)
  Spines: 45.31 ± 3.88%
[3]; ketamine 10^−7 M pre-treatment 48 h, then vehicle (group 6)
  cell cluster: 7.12 ± 0.92%
[3]; two vehicle administrations + one administration of ketamine 10^−7 M (group 13)
  cell cluster: 3.1 ± 1.0%
[1]
  antidepressant-type effect, reduction of immobility time: ineffective
[4]; highest doses of ketamine (10 30 mg/kg), did not reach statistical significance, F(3,31)=2.99, p=0.047
  ambulatory activity in OFT: modified ambulatory activity
[4]; ketamine 1.5, 3.0, 10.0 and 20.0 mg/kg, F(2,23)=0.545, p=0.589
  ambulatory activity in OFT: did not produce changes in the ambulatory activity
[4]; [6]
  Count number/5 min: 40.12 ± 3.23
  Stop number/5 min: 28.62 ± 3.15
[4]; [7]
  Count number/5 min: 45.25 ± 4.29
  Stop number/5 min: 28.25 ± 2.66
[4]; [8]
  Count number/5 min: 56.62 ± 4.36**
  Stop number/5 min: 45.25 ± 2.85**
[4]; [9]
  Count number/5 min: 56.00 ± 3.62**
  Stop number/5 min: 45.50 ± 3.70
[4]; [10]
  Count number/5 min: 60.12 ± 1.60***
  Stop number/5 min: 45.37 ± 1.71
[4]; [11]
  Count number/5 min: 41.400 ± 3.97
  Stop number/5 min: 28.000 ± 2.53
[5]; ketamine 1.5 mg/kg
  Count Number/5 min ± mean standard error: 40.12 ± 3.23
[5]; ketamine 3 mg/kg
  Count Number/5 min ± mean standard error: 45.25 ± 4.29
[5]; ketamine 10 mg/kg
  Count Number/5 min ± mean standard error: 56.34 ± 4.36

## COc1ccc2[nH]cc(CCNC(C)=O)c2c1 [Melatonin, N-[2-(5-methoxy-1H-indol-3-yl)ethyl] acetamide]
[3]; triple administration: three administrations of melatonin 10^−7 M (group 12)
  cell cluster: 2.9 ± 0.9%
[3]; vehicle pre-treatment, then melatonin 10^−7 M (group 5)
  cell cluster: 7.61 ± 0.59%
[1]
  antidepressant-type effect, reduction of immobility time: ineffective
[1]; melatonin 4 mg/kg I.P. (group 21)
  Immobility time: 41.21 ± 7.29 s
[1]; melatonin 16 mg/kg I.P. (group 22)
  Immobility time: 17.38 ± 2.51 s
[4]; [12]
  Count number/5 min: 41.12 ± 2.48
  Stop number/5 min: 25.37 ± 2.18
[4]; [13]
  Count number/5 min: 38.50 ± 3.74
  Stop number/5 min: 25.12 ± 2.36
[4]; [14]
  Count number/5 min: 47.200 ± 5.20
  Stop number/5 min: 29.111 ± 2.16
[4]; [15]
  Count number/5 min: 42.625 ± 5.97
  Stop number/5 min: 26.375 ± 4.60
[5]; melatonin 4 mg/kg
  Count Number/5 min ± mean standard error: 41.125 ± 2.489
[5]; melatonin 16 mg/kg
  Count Number/5 min ± mean standard error: 38.500 ± 3.746
